For 35 molecules, EC50 results are on record in patent US20220081444A1, “6,7-DIHYDRO-4H-PYRAZOLO[1,5-A]PYRAZINE INDOLE-2-CARBOXAMIDES ACTIVE AGAINST THE HEPATITIS B VIRUS (HBV)” (AiCuris GmbH & Co. KG, priority 2018, published 2022).

Molecules are shown by their SMILES. Counter-ions that a name gives are not always drawn. Some results are limits rather than exact numbers.

The term EC50 denotes the concentration giving half of the maximal effect.

The assay deals with HBV. The conditions noted are these: Hepatitis B virus, HePAD38, 144 h, read-out: Cell Activity (EC50).
For `Cn1cc(S(=O)(=O)Nc2cc3n(n2)CCN(C(=O)c2cc4ccccc4[nH]2)C3)cn1` [Example 49, N-[5-(1H-indole-2-carbonyl)-4H,5H,6H,7H-pyrazolo[1,5-a]pyrazin-2-yl]-1-methyl-1H-pyrazole-4-sulfonamide], the EC50 is less than 1000 nM.
On to `CC(CO)CNc1cc2n(n1)CCN(C(=O)c1cc3ccccc3[nH]1)C2` (centres unmarked) [Example 72, 3-{[5-(1H-indole-2-carbonyl)-4H,5H,6H,7H-pyrazolo[1,5-a]pyrazin-2-yl]amino}-2-methylpropan-1-ol], for which the EC50 was less than 1000 nM.
The same measure for `CC1Cn2nc(NC(=O)C3CCOC3)cc2CN1C(=O)c1cc2ccccc2[nH]1` (centres unmarked) [Example 10, N-[5-(1H-indole-2-carbonyl)-6-methyl-4H,5H, 6H,7H-pyrazolo[1,5-a]pyrazin-2-yl]oxolane-3-carboxamide]: less than 1000 nM; for `O=C(Nc1cc2n(n1)CCN(C(=O)c1cc3ccccc3[nH]1)C2)C1CCn2ccnc2C1` (centres unmarked) [Example 68, N-[5-(1H-indole-2-carbonyl)-4H,5H,6H,7H-pyrazolo[1,5-a]pyrazin-2-yl]-5H,6H,7H,8H-imidazo[1,2-a]pyridine-7-carboxamide]: less than 1000 nM.
As for `NC(=O)N1CCC(C(=O)Nc2cc3n(n2)CCN(C(=O)c2cc4ccccc4[nH]2)C3)CC1` [Example 65, N4-[5-(1H-indole-2-carbonyl)-4H,5H,6H,7H-pyrazolo[1,5-a]pyrazin-2-yl]piperidine-1,4-dicarboxamide], the EC50 is less than 1000 nM.
In the case of `O=C(c1cc2ccccc2[nH]1)N1CCn2nc(NCC3CCCOC3)cc2C1` (centres unmarked) [Example 55, 5-(1H-indole-2-carbonyl)-N-[(oxan-3-yl)methyl]-4H,5H,6H,7H-pyrazolo[1,5-a]pyrazin-2-amine] it was less than 1000 nM; in that of `CCc1cc(F)cc2[nH]c(C(=O)N3CCn4nc(NS(=O)(=O)C5CC5)cc4C3)cc12` [Example 39, N-[5-(4-ethyl-6-fluoro-1H-indole-2-carbonyl)-4H,5H,6H,7H-pyrazolo[1,5-a]pyrazin-2-yl]cyclopropanesulfonamide], less than 1000 nM; in that of `Cc1nc(S(=O)(=O)Nc2cc3n(n2)CCN(C(=O)c2cc4ccccc4[nH]2)C3)cn1C` [Example 48, [5-(1H-indole-2-carbonyl)-4H,5H,6H,7H-pyrazolo[1,5-a]pyrazin-2-yl]-1,2-dimethyl-1H-imidazole-4-sulfonamide], 1000 to 10000 nM.
As to `O=C(c1cc2ccccc2[nH]1)N1CCn2nc(NCC3CCOC3)cc2C1` (centres unmarked) [Example 31, 5-(1H-indole-2-carbonyl)-N-[(oxolan-3-yl)methyl]-4H,5H,6H,7H-pyrazolo[1,5-a]pyrazin-2-amine], the concentration for a half-maximal effect (EC50) is less than 1000 nM.
On to `O=C(c1cc2ccccc2[nH]1)N1CCn2nc(N[C@H]3CCC[C@@H](O)C3)cc2C1` [Example 77, (1R,3S)-3-{[5-(1H-indole-2-carbonyl)-4H,5H,6H,7H-pyrazolo[1,5-a]pyrazin-2-yl]amino}cyclohexan-1-ol], for which the EC50 is less than 1000 nM.
On to `CC1Cn2nc(NCC3CCOC3)cc2CN1C(=O)c1cc2ccccc2[nH]1` (centres unmarked) [Example 12, 5-(1H-indole-2-carbonyl)-6-methyl-N-[(oxolan-3-yl)methyl]-4H,5H,6H,7H-pyrazolo[1,5-a]pyrazin-2-amine], for which the EC50 was less than 1000 nM.
Regarding `O=C(Nc1cc2n(n1)CCN(C(=O)c1cc3ccccc3[nH]1)C2)C1CCN(C2CC2)CC1` [Example 74, 1-cyclopropyl-N-[5-(1H-indole-2-carbonyl)-4H,5H,6H,7H-pyrazolo[1,5-a]pyrazin-2-yl]piperidine-4-carboxamide], the EC50 was less than 1000 nM.
For `CC(C)(CO)CNc1cc2n(n1)CCN(C(=O)c1cc3ccccc3[nH]1)C2` [Example 59, 3-{[5-(1H-indole-2-carbonyl)-4H,5H,6H,7H-pyrazolo[1,5-a]pyrazin-2-yl]amino}-2,2-dimethylpropan-1-ol], the EC50 is less than 1000 nM.
As for `O=C(c1cc2ccccc2[nH]1)N1CCn2nc(NC3(CO)CC3)cc2C1` [Example 92, (1-{[5-(1H-indole-2-carbonyl)-4H,5H,6H,7H-pyrazolo[1,5-a]pyrazin-2-yl]amino}cyclopropyl)methanol], the EC50 was less than 1000 nM.
Regarding `O=C(Nc1cc2n(n1)CCN(C(=O)c1cc3ccccc3[nH]1)C2)C1CCOC1` (centres unmarked) [Example 30, N-[5-(1H-indole-2-carbonyl)-4H,5H,6H,7H-pyrazolo[1,5-a]pyrazin-2-yl]oxolane-3-carboxamide], the EC50 is less than 1000 nM.
Consider `O=C(c1cc2ccccc2[nH]1)N1CCn2nc(NS(=O)(=O)c3cccnc3)cc2C1` [Example 50, N-[5-(1H-indole-2-carbonyl)-4H,5H,6H,7H-pyrazolo[1,5-a]pyrazin-2-yl]pyridine-3-sulfonamide], for which the EC50 was less than 1000 nM.
As for `O=C(c1cc2ccccc2[nH]1)N1CCn2nc(N[C@H]3CC[C@H](O)CC3)cc2C1` [Example 2, (1r,4r)-4-{[5-(1H-indole-2-carbonyl)-4H,5H,6H,7H-pyrazolo[1,5-a]pyrazin-2-yl]amino}cyclohexan-1-ol], the EC50 was less than 1000 nM.
`CC1Cn2nc(NC(=O)C3CCOC3)cc2CN1C(=O)c1cc2c(Cl)cccc2[nH]1` (centres unmarked) [Example 11, N-[5-(4-chloro-1H-indole-2-carbonyl)-6-methyl-4H,5H,6H,7H-pyrazolo[1,5-a]pyrazin-2-yl]oxolane-3-carboxamide]: the EC50 was less than 1000 nM.
For `CN1CC(C(=O)Nc2cc3n(n2)CCN(C(=O)c2cc4ccccc4[nH]2)C3)C1` [Example 70, N-[5-(1H-indole-2-carbonyl)-4H,5H,6H,7H-pyrazolo[1,5-a]pyrazin-2-yl]-1-methylazetidine-3-carboxamide], the EC50 fell in the range of 1000 to 10000 nM.
For the molecule `O=C(c1cc2ccccc2[nH]1)N1CCn2nc(NS(=O)(=O)Cc3ccccc3)cc2C1` [Example 43, N-[5-(1H-indole-2-carbonyl)-4H,5H,6H,7H-pyrazolo[1,5-a]pyrazin-2-yl]-1-phenylmethanesulfonamide], the EC50 is less than 1000 nM.
Consider `CS(=O)(=O)Nc1cc2n(n1)CCN(C(=O)c1cc3ccccc3[nH]1)C2` [Example 8, N-[5-(1H-indole-2-carbonyl)-4H,5H,6H,7H-pyrazolo[1,5-a]pyrazin-2-yl]methanesulfonamide], for which the EC50 is less than 1000 nM.
In the case of `O=C(Nc1cc2n(n1)CCN(C(=O)c1cc3ccccc3[nH]1)C2)C1CCN(CC(F)(F)F)CC1` [Example 63, N-[5-(1H-indole-2-carbonyl)-4H,5H,6H,7H-pyrazolo[1,5-a]pyrazin-2-yl]-1-(2,2,2-trifluoroethyl)piperidine-4-carboxamide] it was less than 1000 nM; in that of `CC(=O)N1CCC(C(=O)Nc2cc3n(n2)CCN(C(=O)c2cc4ccccc4[nH]2)C3)CC1` [Example 42, 1-acetyl-N-[5-(1H-indole-2-carbonyl)-4H,5H,6H,7H-pyrazolo[1,5-a]pyrazin-2-yl]piperidine-4-carboxamide], less than 1000 nM; in that of `O=C(c1cc2ccccc2[nH]1)N1CCn2nc(NC3(CO)CCC3)cc2C1` [Example 90, (1-{[5-(1H-indole-2-carbonyl)-4H,5H,6H,7H-pyrazolo[1,5-a]pyrazin-2-yl]amino}cyclobutyl)methanol], less than 1000 nM.
With `O=C(c1cc2ccccc2[nH]1)N1CCn2nc(NCC3(O)CCC3)cc2C1` [Example 71, 1-({[5-(1H-indole-2-carbonyl)-4H,5H,6H,7H-pyrazolo[1,5-a]pyrazin-2-yl]amino}methyl)cyclobutan-1-ol], the EC50 is less than 1000 nM.
Regarding `CC1Cn2nc(NCC3CCOC3)cc2CN1C(=O)c1cc2c(Cl)cccc2[nH]1` (centres unmarked) [Example 13, 5-(4-chloro-1H-indole-2-carbonyl)-6-methyl-N-[(oxolan-3-yl)methyl]-4H,5H,6H,7H-pyrazolo[1,5-a]pyrazin-2-amine], the EC50 was less than 1000 nM.
In the case of `Nc1cc2n(n1)CCN(C(=O)c1cc3c(F)cc(F)cc3[nH]1)C2` [Example 33, 5-(4,6-difluoro-1H-indole-2-carbonyl)-4H,5H,6H,7H-pyrazolo[1,5-a]pyrazin-2-amine] it was less than 1000 nM; in that of `O=C(Nc1cc2n(n1)CCN(C(=O)c1cc3ccccc3[nH]1)C2)C1CCOCC1` [Example 18, N-[5-(1H-indole-2-carbonyl)-4H,5H,6H,7H-pyrazolo[1,5-a]pyrazin-2-yl]oxane-4-carboxamide], less than 1000 nM.
For `CC(=O)N1CC(C(=O)Nc2cc3n(n2)CCN(C(=O)c2cc4ccccc4[nH]2)C3)C1` [Example 66, 1-acetyl-N-[5-(1H-indole-2-carbonyl)-4H,5H,6H,7H-pyrazolo[1,5-a]pyrazin-2-yl]azetidine-3-carboxamide], the EC50 is less than 1000 nM.
The same measure for `O=C(Nc1cc2n(n1)CCN(C(=O)c1cc3ccccc3[nH]1)C2)C1CCNCC1` [Example 41, N-[5-(1H-indole-2-carbonyl)-4H,5H,6H,7H-pyrazolo[1,5-a]pyrazin-2-yl]piperidine-4-carboxamide Hydrochloride]: less than 1000 nM; for `COC1(CNc2cc3n(n2)CCN(C(=O)c2cc4ccccc4[nH]2)C3)CCOC1` (centres unmarked) [Example 94, 5-(1H-indole-2-carbonyl)-N-[(3-methoxyoxolan-3-yl)methyl]-4H,5H,6H,7H-pyrazolo[1,5-a]pyrazin-2-amine]: less than 1000 nM; for `CN1CCC(C(=O)Nc2cc3n(n2)CCN(C(=O)c2cc4ccccc4[nH]2)C3)CC1C(F)(F)F` (centres unmarked) [Example 81, N-[5-(1H-indole-2-carbonyl)-4H,5H,6H,7H-pyrazolo[1,5-a]pyrazin-2-yl]-1-methyl-2-(trifluoromethyl)piperidine-4-carboxamide]: less than 1000 nM.
In the case of `CCc1cccc2[nH]c(C(=O)N3CCn4nc(NCC5(O)CCC5)cc4C3)cc12` [Example 93, 1-({[5-(4-ethyl-1H-indole-2-carbonyl)-4H,5H,6H,7H-pyrazolo[1,5-a]pyrazin-2-yl]amino}methyl)cyclobutan-1-ol] it was less than 1000 nM.
As to `CNC(=O)Nc1cc2n(n1)CCN(C(=O)c1cc3ccccc3[nH]1)C2` [Example 67, 1-[5-(1H-indole-2-carbonyl)-4H,5H,6H,7H-pyrazolo[1,5-a]pyrazin-2-yl]-3-methylurea], the EC50 was less than 1000 nM.
In the case of `O=C(c1cc2c(F)cc(F)cc2[nH]1)N1CCn2nc(NS(=O)(=O)C3CC3)cc2C1` [Example 35, N-[5-(4,6-difluoro-1H-indole-2-carbonyl)-4H,5H,6H,7H-pyrazolo[1,5-a]pyrazin-2-yl]cyclopropanesulfonamide], the EC50 is less than 1000 nM.
